Values of other authors as cited in US20090312281A1, “PROCESS FOR THE PREPARATION OF A PULVERULENT COMPOSITION AND PRODUCT AS OBTAINED” (INNOV'IA, priority 2006, published 2009).

Compound | Solubility in water at 60° C. (% weight/weight)
O=C(CO)[C@@H](O)[C@H](O)[C@H](O)CO [Fructose] | 89 % weight/weight
OC[C@H]1O[C@@](CO)(O[C@H]2O[C@H](CO)[C@@H](O)[C@H](O)[C@H]2O)[C@@H](O)[C@@H]1O [Sucrose] | 71 % weight/weight
